Data: PubChem BioAssay (NCI)
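Step 1: Grow cells in 96-well plates. Step 2: Expose to compound for 48 hours at 5 concentrations. Step 3: Interpolate endpoints linearly; if unreached, use highest concentration. Definition used: TGI = concentration required for complete inhibition of growth.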

Key:
Assay in all cases: NCI anticancer screen, dose series, 48 h
A549 NSCLC = test system: A549 NSCLC
NCI-H23 lung = test system: NCI-H23 lung
HL-60(TB) leukemia = test system: HL-60(TB) leukemia
RPMI-8226 leukemia = test system: RPMI-8226 leukemia
CCRF-CEM leukemia = test system: CCRF-CEM leukemia
OVCAR-4 ovarian = test system: OVCAR-4 ovarian
K-562 leukemia = test system: K-562 leukemia
SK-MEL-28 melanoma = test system: SK-MEL-28 melanoma
HCT-116 colon = test system: HCT-116 colon
LOX IMVI melanoma = test system: LOX IMVI melanoma
UO-31 renal = test system: UO-31 renal
EKVX NSCLC = test system: EKVX NSCLC
OVCAR-3 ovarian = test system: OVCAR-3 ovarian
A498 renal = test system: A498 renal
HOP-92 NSCLC = test system: HOP-92 NSCLC
SF-268 CNS = test system: SF-268 CNS
NCI-H226 lung = test system: NCI-H226 lung
NCI/ADR-RES ovarian = test system: NCI/ADR-RES ovarian
SF-295 CNS = test system: SF-295 CNS
SR leukemia = test system: SR leukemia
SNB-19 CNS = test system: SNB-19 CNS
ACHN renal = test system: ACHN renal
CAKI-1 renal = test system: CAKI-1 renal
IGROV1 ovarian = test system: IGROV1 ovarian
786-0 renal = test system: 786-0 renal
OVCAR-5 ovarian = test system: OVCAR-5 ovarian
U251 CNS = test system: U251 CNS
MDA-MB-231 breast = test system: MDA-MB-231 breast
MCF7 breast = test system: MCF7 breast
DU-145 prostate = test system: DU-145 prostate
HCT-15 colon = test system: HCT-15 colon
KM12 colon = test system: KM12 colon
HOP-62 NSCLC = test system: HOP-62 NSCLC
MDA-MB-435 = test system: MDA-MB-435
NCI-H460 lung = test system: NCI-H460 lung
SW-620 colon = test system: SW-620 colon
SK-MEL-5 melanoma = test system: SK-MEL-5 melanoma
COLO 205 colon = test system: COLO 205 colon
M14 melanoma = test system: M14 melanoma
PC-3 prostate = test system: PC-3 prostate
NCI-H522 lung = test system: NCI-H522 lung
HT29 colon = test system: HT29 colon
TK-10 renal = test system: TK-10 renal
BT-549 breast = test system: BT-549 breast
MOLT-4 leukemia = test system: MOLT-4 leukemia
SN12C renal = test system: SN12C renal
UACC-62 melanoma = test system: UACC-62 melanoma
UACC-257 melanoma = test system: UACC-257 melanoma
SF-539 CNS = test system: SF-539 CNS
MALME-3M melanoma = test system: MALME-3M melanoma
RXF 393 renal = test system: RXF 393 renal
SNB-75 CNS = test system: SNB-75 CNS
HS 578T breast = test system: HS 578T breast
T-47D breast = test system: T-47D breast
SK-MEL-2 melanoma = test system: SK-MEL-2 melanoma
MDA-N = test system: MDA-N
SK-OV-3 ovarian = test system: SK-OV-3 ovarian
OVCAR-8 ovarian = test system: OVCAR-8 ovarian

CCOc1ccccc1/C=C(/C#N)C(N)=O showed a TGI (A549 NSCLC) of over 100 µM, a TGI (NCI-H23 lung) of over 100 µM and a TGI (HL-60(TB) leukemia) of over 100 µM. For the same molecule, the TGI (RPMI-8226 leukemia) was over 100 µM, the TGI (CCRF-CEM leukemia) was 73.7 µM and the TGI (OVCAR-4 ovarian) was over 100 µM. The TGI (K-562 leukemia) was over 100 µM, the TGI (SK-MEL-28 melanoma) was over 100 µM and the TGI (HCT-116 colon) was over 100 µM. For the same molecule, the TGI (LOX IMVI melanoma) was over 100 µM, the TGI (UO-31 renal) was over 100 µM and the TGI (EKVX NSCLC) was over 100 µM. The TGI (OVCAR-3 ovarian) was over 100 µM, the TGI (A498 renal) was over 100 µM and the TGI (HOP-92 NSCLC) was over 100 µM. It also gave a TGI (SF-268 CNS) of over 100 µM, a TGI (NCI-H226 lung) of over 100 µM and a TGI (NCI/ADR-RES ovarian) of over 100 µM. It also gave a TGI (SF-295 CNS) of over 100 µM, a TGI (SR leukemia) of over 100 µM and a TGI (SNB-19 CNS) of over 100 µM. For the same molecule, the TGI (ACHN renal) was over 100 µM, the TGI (CAKI-1 renal) was over 100 µM and the TGI (IGROV1 ovarian) was over 100 µM. The TGI (786-0 renal) was over 100 µM, the TGI (OVCAR-5 ovarian) was over 100 µM and the TGI (U251 CNS) was over 100 µM. It also gave a TGI (MDA-MB-231 breast) of over 100 µM, a TGI (MCF7 breast) of over 100 µM and a TGI (DU-145 prostate) of over 100 µM. For the same molecule, the TGI (HCT-15 colon) was over 100 µM, the TGI (KM12 colon) was over 100 µM and the TGI (HOP-62 NSCLC) was over 100 µM. For the same molecule, the TGI (MDA-MB-435) was 41.9 µM, the TGI (NCI-H460 lung) was over 100 µM and the TGI (SW-620 colon) was over 100 µM. The TGI (SK-MEL-5 melanoma) was over 100 µM, the TGI (COLO 205 colon) was over 100 µM and the TGI (M14 melanoma) was over 100 µM. For the same molecule, the TGI (PC-3 prostate) was over 100 µM, the TGI (NCI-H522 lung) was over 100 µM and the TGI (HT29 colon) was over 100 µM. It also gave a TGI (TK-10 renal) of over 100 µM, a TGI (BT-549 breast) of over 100 µM and a TGI (MOLT-4 leukemia) of over 100 µM. It also gave a TGI (SN12C renal) of over 100 µM, a TGI (UACC-62 melanoma) of over 100 µM and a TGI (UACC-257 melanoma) of over 100 µM. For the same molecule, the TGI (SF-539 CNS) was over 100 µM, the TGI (MALME-3M melanoma) was over 100 µM and the TGI (RXF 393 renal) was over 100 µM. For the same molecule, the TGI (SNB-75 CNS) was over 100 µM, the TGI (HS 578T breast) was over 100 µM and the TGI (T-47D breast) was over 100 µM. It also gave a TGI (SK-MEL-2 melanoma) of over 100 µM, a TGI (MDA-N) of 45.7 µM and a TGI (SK-OV-3 ovarian) of over 100 µM. The TGI (OVCAR-8 ovarian) was over 100 µM.

Work on C#CC1(O)C(COP(=O)(O)OC(COCCCCCCCCCCCCCCCCCC)COP(=O)(O)OCC2OC(n3cc(C)c(=O)[nH]c3=O)CC2N=[N+]=[N-])OC(n2ccc(N)nc2=O)C1O (centres undefined) yielded a TGI (A549 NSCLC) of 20.2 µM, a TGI (NCI-H23 lung) of 23.1 µM and a TGI (HL-60(TB) leukemia) of 16 µM. It also gave a TGI (RPMI-8226 leukemia) of 1.05 µM, a TGI (CCRF-CEM leukemia) of 18.9 µM and a TGI (OVCAR-4 ovarian) of 30.9 µM. For the same molecule, the TGI (K-562 leukemia) was over 71.4 µM, the TGI (SK-MEL-28 melanoma) was 22.4 µM and the TGI (HCT-116 colon) was over 100 µM. It also gave a TGI (LOX IMVI melanoma) of 13 µM, a TGI (UO-31 renal) of 2.69 µM and a TGI (EKVX NSCLC) of over 67.2 µM. It also gave a TGI (OVCAR-3 ovarian) of 28.7 µM, a TGI (A498 renal) of 17.1 µM and a TGI (HOP-92 NSCLC) of 31.9 µM. The TGI (SF-268 CNS) was 21.7 µM, the TGI (NCI-H226 lung) was over 91.2 µM and the TGI (NCI/ADR-RES ovarian) was 16.6 µM. It also gave a TGI (SF-295 CNS) of 10.7 µM, a TGI (SR leukemia) of over 86.3 µM and a TGI (SNB-19 CNS) of 17.3 µM. It also gave a TGI (ACHN renal) of over 72.5 µM, a TGI (CAKI-1 renal) of over 29 µM and a TGI (IGROV1 ovarian) of 5.05 µM. For the same molecule, the TGI (786-0 renal) was over 100 µM, the TGI (OVCAR-5 ovarian) was over 92.7 µM and the TGI (U251 CNS) was 22 µM. For the same molecule, the TGI (MDA-MB-231 breast) was 32.2 µM, the TGI (MCF7 breast) was 8.67 µM and the TGI (DU-145 prostate) was over 100 µM. The TGI (HCT-15 colon) was over 47.8 µM, the TGI (KM12 colon) was 20.5 µM and the TGI (HOP-62 NSCLC) was over 74.2 µM. The TGI (MDA-MB-435) was 8.38 µM, the TGI (NCI-H460 lung) was 17.6 µM and the TGI (SW-620 colon) was 33.4 µM. For the same molecule, the TGI (SK-MEL-5 melanoma) was over 100 µM, the TGI (COLO 205 colon) was 5.23 µM and the TGI (M14 melanoma) was 26.1 µM. The TGI (PC-3 prostate) was over 81.6 µM, the TGI (NCI-H522 lung) was 1.33 µM and the TGI (HT29 colon) was over 50.9 µM. It also gave a TGI (TK-10 renal) of 10.2 µM, a TGI (BT-549 breast) of 31 µM and a TGI (MOLT-4 leukemia) of 59.5 µM. The TGI (SN12C renal) was over 100 µM, the TGI (UACC-62 melanoma) was 18.8 µM and the TGI (UACC-257 melanoma) was over 77.3 µM. The TGI (SF-539 CNS) was 14.1 µM, the TGI (MALME-3M melanoma) was 36.8 µM and the TGI (RXF 393 renal) was 30.6 µM. The TGI (SNB-75 CNS) was 22.3 µM, the TGI (HS 578T breast) was 62.9 µM and the TGI (T-47D breast) was over 77 µM. For the same molecule, the TGI (SK-MEL-2 melanoma) was 2.44 µM, the TGI (MDA-N) was 20.5 µM and the TGI (SK-OV-3 ovarian) was 29.7 µM. It also gave a TGI (OVCAR-8 ovarian) of over 42.2 µM.

c1ccc(COC2NCCN2Cc2ccccc2)cc1 (centres undefined) was tested, and the TGI (A549 NSCLC) was over 100 µM, the TGI (NCI-H23 lung) was over 100 µM and the TGI (HL-60(TB) leukemia) was over 100 µM. The TGI (RPMI-8226 leukemia) was over 100 µM, the TGI (CCRF-CEM leukemia) was over 100 µM and the TGI (OVCAR-4 ovarian) was over 100 µM. The TGI (K-562 leukemia) was over 100 µM, the TGI (SK-MEL-28 melanoma) was over 100 µM and the TGI (HCT-116 colon) was over 100 µM. The TGI (LOX IMVI melanoma) was over 100 µM, the TGI (UO-31 renal) was over 100 µM and the TGI (EKVX NSCLC) was over 100 µM. The TGI (OVCAR-3 ovarian) was over 100 µM, the TGI (A498 renal) was over 100 µM and the TGI (HOP-92 NSCLC) was over 100 µM. It also gave a TGI (SF-268 CNS) of over 100 µM, a TGI (NCI-H226 lung) of over 100 µM and a TGI (NCI/ADR-RES ovarian) of over 100 µM. For the same molecule, the TGI (SF-295 CNS) was over 100 µM, the TGI (SR leukemia) was over 100 µM and the TGI (SNB-19 CNS) was over 100 µM. It also gave a TGI (ACHN renal) of over 100 µM, a TGI (CAKI-1 renal) of over 100 µM and a TGI (IGROV1 ovarian) of over 100 µM. It also gave a TGI (786-0 renal) of over 100 µM, a TGI (OVCAR-5 ovarian) of over 100 µM and a TGI (U251 CNS) of over 100 µM. For the same molecule, the TGI (MDA-MB-231 breast) was over 100 µM, the TGI (MCF7 breast) was over 100 µM and the TGI (DU-145 prostate) was over 100 µM. For the same molecule, the TGI (HCT-15 colon) was over 100 µM, the TGI (KM12 colon) was over 100 µM and the TGI (HOP-62 NSCLC) was over 100 µM. It also gave a TGI (MDA-MB-435) of over 100 µM, a TGI (NCI-H460 lung) of over 100 µM and a TGI (SW-620 colon) of over 100 µM. For the same molecule, the TGI (SK-MEL-5 melanoma) was over 100 µM, the TGI (COLO 205 colon) was over 100 µM and the TGI (M14 melanoma) was over 100 µM. The TGI (PC-3 prostate) was over 100 µM, the TGI (NCI-H522 lung) was over 100 µM and the TGI (HT29 colon) was over 100 µM. It also gave a TGI (TK-10 renal) of over 100 µM, a TGI (BT-549 breast) of over 100 µM and a TGI (MOLT-4 leukemia) of over 100 µM. For the same molecule, the TGI (SN12C renal) was over 100 µM, the TGI (UACC-62 melanoma) was over 100 µM and the TGI (UACC-257 melanoma) was over 100 µM. The TGI (SF-539 CNS) was over 100 µM, the TGI (MALME-3M melanoma) was over 100 µM and the TGI (RXF 393 renal) was over 100 µM. For the same molecule, the TGI (SNB-75 CNS) was over 100 µM, the TGI (HS 578T breast) was over 100 µM and the TGI (T-47D breast) was over 100 µM. For the same molecule, the TGI (SK-MEL-2 melanoma) was over 100 µM, the TGI (MDA-N) was over 100 µM and the TGI (SK-OV-3 ovarian) was over 100 µM. It also gave a TGI (OVCAR-8 ovarian) of over 100 µM.
